Reference: US20190374563A1, “TREATMENT OF KLEBSIELLA PNEUMONIAE INFECTIONS WITH ANTIBACTERIAL AMINOGLYCOSIDE COMPOUNDS” (Achaogen, Inc., priority 2009, published 2019)
Converted amounts (≈) assume the structure as drawn. Where two headings read alike, the source gives them in different places.

Assays:
[1] = test system: E. coli ATCC 25922 (AECO001); assay: MIC assay, CLSI broth microdilution; type: cell-based; set-up: MIC AECO001: unit not given here; settings: for MIC: Escherichia coli; for MIC AECO001: Table 3, E. coli ATCC25922
Description: (§1) Minimum inhibitory concentrations (MIC) were determined by reference Clinical and Laboratory Standards Institute (CLSI) broth microdilution methods per M7-A7 [2006]. Quality control ranges utilizing E. coli ATCC 25922, P. aeruginosa ATCC 27853 and S. aureus ATCC 29213, and interpretive criteria for comparator agents were as published in CLSI M100-S17 [2007]. Briefly, serial two-fold dilutions of the test compounds were prepared at 2× concentration in Mueller Hinton Broth. The compound dilutions were mixed in 96-well assay plates in a 1:1 ratio with bacterial inoculum. The inoculum was prepared by suspension of a colony from an agar plate that was prepared the previous day. Bacteria were suspended in sterile saline and added to each assay plate to obtain a final concentration of 5×10^5 CFU/mL. The plates were incubated at 35° C. for 20 hours in ambient air.

[2] = test system: P. aeruginosa ATCC 27853 (APAE001); assay: MIC assay, CLSI broth microdilution; type: cell-based; settings: Pseudomonas aeruginosa
Description: as §1

[3] = ATCC25922, read-out: MIC AECO001
[4] = ATCC27853, read-out: MIC APAE001
[5] = Table 1, AECO001 is ATCC25922, read-out: MIC AECO001
[6] = Table 1, APAE001 is ATCC27853, read-out: MIC APAE001

Compound: CN[C@@H]1[C@@H](O)[C@@H](O[C@@H]2[C@@H](O)[C@H](O[C@H]3OC(CNCCO)=CC[C@H]3N)[C@@H](N)C[C@H]2NC(=O)[C@H](O)CCN)OC[C@]1(C)O [Example 2, 6′-(2-Hydroxy-ethyl)-1-(4-amino-2(R)-hydroxy-butyryl)-sisomicin]
- MIC [1, 3]: 1 to 16 µg/mL (≈ 1.69 to 27 µM)
- MIC [2, 4]: 1 to 16 µg/mL (≈ 1.69 to 27 µM)

Compound: CN[C@@H]1[C@@H](O)[C@@H](O[C@@H]2[C@@H](O)[C@H](O[C@H]3OC(CNCC(O)CO)=CC[C@H]3N)[C@@H](N)C[C@H]2NC(=O)[C@H](O)CCN)OC[C@]1(C)O (stereo partly drawn) [Example 3, 6′-(2-Hydroxy-propanol)-1-(4-amino-2(R)-hydroxy-butyryl)-sisomicin]
- MIC [1, 3]: 1 to 16 µg/mL (≈ 1.61 to 25.7 µM)
- MIC [2, 4]: > 16 µg/mL

Compound: CN[C@@H]1[C@@H](O)[C@@H](O[C@@H]2[C@@H](O)[C@H](O[C@H]3OC(CNCC4CCNCC4)=CC[C@H]3N)[C@@H](N)C[C@H]2NC(=O)[C@H](O)CCN)OC[C@]1(C)O [Example 4, 6′-(Methyl-piperidin-4-yl)-1-(4-amino-2(R)-hydroxy-butyryl)-sisomicin]
- MIC [1, 3]: 1 to 16 µg/mL (≈ 1.55 to 24.8 µM)
- MIC [2, 4]: 1 to 16 µg/mL (≈ 1.55 to 24.8 µM)

Compound: CN[C@@H]1[C@@H](O)[C@@H](O[C@@H]2[C@@H](O)[C@H](O[C@H]3OC(CNCC4CC4)=CC[C@H]3N)[C@@H](N)C[C@H]2NC(=O)[C@H](O)CCN)OC[C@]1(C)O [Example 5, 6′-(Methyl-cyclopropyl)-1-(4-amino-2(R)-hydroxy-butyryl)-sisomicin]
- MIC [1, 3]: < 1 µg/mL
- MIC [2, 4]: 1 to 16 µg/mL (≈ 1.66 to 26.5 µM)

Compound: CN[C@@H]1[C@@H](O)[C@@H](O[C@@H]2[C@@H](O)[C@H](O[C@H]3OC(CNCCCN)=CC[C@H]3N)[C@@H](N)C[C@H]2NC(=O)[C@H](O)CCN)OC[C@]1(C)O [Example 6, 6′-(3-Amino-propyl)-1-(4-amino-2(R)-hydroxy-butyryl)-sisomicin]
- MIC [1, 3]: 1 to 16 µg/mL (≈ 1.65 to 26.4 µM)
- MIC [2, 4]: 1 to 16 µg/mL (≈ 1.65 to 26.4 µM)

Compound: CN[C@@H]1[C@@H](O)[C@@H](O[C@@H]2[C@@H](O)[C@H](O[C@H]3OC(CNCC4CC4)=CC[C@H]3N)[C@@H](N)C[C@H]2NC(=O)[C@H](O)CN)OC[C@]1(C)O [Example 7, 6′-Methyl-cyclopropyl-1-(3-amino-2(R)-hydroxy-propionyl)-sisomicin]
- MIC [1, 3]: < 1 µg/mL
- MIC [2, 4]: 1 to 16 µg/mL (≈ 1.7 to 27.2 µM)

Compound: CN[C@@H]1[C@@H](O)[C@@H](O[C@@H]2[C@@H](O)[C@H](O[C@H]3OC(CNCC4CCNCC4)=CC[C@H]3N)[C@@H](N)C[C@H]2NC(=O)[C@H](O)CN)OC[C@]1(C)O [Example 8, 6′-Methyl-piperidinyl-1-(3-amino-2(R)-hydroxy-propionyl)-sisomicin]
- MIC [1, 3]: < 1 µg/mL
- MIC [2, 4]: 1 to 16 µg/mL (≈ 1.58 to 25.3 µM)

Compound: CN[C@@H]1[C@@H](O)[C@@H](O[C@@H]2[C@@H](O)[C@H](O[C@H]3OC(CNCCO)=CC[C@H]3N)[C@@H](N)C[C@H]2NC(=O)[C@H](O)CN)OC[C@]1(C)O [Example 9, 6′-(2-Hydroxy-ethyl)-1-(3-amino-2(R)-hydroxy-propionyl)-sisomicin]
- MIC [1, 3]: 1 to 16 µg/mL (≈ 1.73 to 27.6 µM)
- MIC [2, 4]: > 16 µg/mL

Compound: CN[C@@H]1[C@@H](O)[C@@H](O[C@@H]2[C@@H](O)[C@H](O[C@H]3OC(CNCC(O)CO)=CC[C@H]3N)[C@@H](N)C[C@H]2NC(=O)[C@H](O)CN)OC[C@]1(C)O (stereo partly drawn) [Example 10, 6′-(2-Hydroxy-propanol)-1-(3-amino-2(R)-hydroxy-propionyl)-sisomicin]
- MIC [1, 3]: 1 to 16 µg/mL (≈ 1.64 to 26.3 µM)
- MIC [2, 4]: 1 to 16 µg/mL (≈ 1.64 to 26.3 µM)

Compound: CN[C@@H]1[C@@H](O)[C@@H](O[C@@H]2[C@@H](O)[C@H](O[C@H]3OC(CNCCCN)=CC[C@H]3N)[C@@H](N)C[C@H]2NC(=O)[C@H](O)CN)OC[C@]1(C)O [Example 11, 6′-(3-Amino-propyl)-1-(3-amino-2(R)-hydroxy-propionyl)-sisomicin]
- MIC [1, 3]: < 1 µg/mL
- MIC [2, 4]: 1 to 16 µg/mL (≈ 1.69 to 27 µM)

Compound: CN[C@@H]1[C@@H](O)[C@@H](O[C@@H]2[C@@H](O)[C@H](O[C@H]3OC(CNCC4CCNCC4)=CC[C@H]3N)[C@@H](N)C[C@H]2NC(=O)[C@@H](O)CCN)OC[C@]1(C)O [Example 12, 6′-(Methyl-piperidin-4-yl)-1-(4-amino-2(S)-hydroxy-butyryl)-sisomicin]
- MIC [1, 5]: 1 to 16 µg/mL (≈ 1.55 to 24.8 µM)
- MIC AECO001 [1]: 1
- MIC [2, 6]: 1 to 16 µg/mL (≈ 1.55 to 24.8 µM)

Compound: CN[C@@H]1[C@@H](O)[C@@H](O[C@@H]2[C@@H](O)[C@H](O[C@H]3OC(CNCC4CC4)=CC[C@H]3N)[C@@H](N)C[C@H]2NC(=O)[C@@H](O)CN)OC[C@]1(C)O [Example 13, 6′-(Methyl-cyclopropyl)-1-(3-amino-2(S)-hydroxy-propionyl)-sisomicin]
- MIC [1, 5]: 1 to 16 µg/mL (≈ 1.7 to 27.2 µM)
- MIC AECO001 [1]: 1
- MIC [2, 6]: > 16 µg/mL

Compound: CN[C@@H]1[C@@H](O)[C@@H](O[C@@H]2[C@@H](O)[C@H](O[C@H]3OC(CNCC(O)CO)=CC[C@H]3N)[C@@H](N)C[C@H]2NC(=O)[C@@H](O)CN)OC[C@]1(C)O (stereo partly drawn) [Example 14, 6′-(2-Hydroxy-propanol)-1-(3-amino-2(S)-hydroxy-propionyl)-sisomicin]
- MIC [1, 3]: 1 to 16 µg/mL (≈ 1.64 to 26.3 µM)
- MIC [2, 4]: 1 to 16 µg/mL (≈ 1.64 to 26.3 µM)

Compound: CN[C@@H]1[C@@H](O)[C@@H](O[C@@H]2[C@@H](O)[C@H](O[C@H]3OC(CNCC4CC4)=CC[C@H]3N)[C@@H](N)C[C@H]2NC(=O)[C@@H](O)CCN)OC[C@]1(C)O [Example 18, 6′-(Methyl-cyclopropyl)-1-(4-amino-2(S)-hydroxy-butyryl)-sisomicin]
- MIC [1, 5]: < 1 µg/mL
- MIC AECO001 [1]: 1
- MIC [2, 6]: 1 to 16 µg/mL (≈ 1.66 to 26.5 µM)

Compound: CN[C@@H]1[C@@H](O)[C@@H](O[C@@H]2[C@@H](O)[C@H](O[C@H]3OC(CNCC(O)CO)=CC[C@H]3N)[C@@H](N)C[C@H]2NC(=O)[C@@H](O)CCN)OC[C@]1(C)O (stereo partly drawn) [Example 19, 6′-(2-Hydroxy-propanol)-1-(4-amino-2(S)-hydroxy-butyryl)-sisomicin]
- MIC [1, 3]: < 1 µg/mL
- MIC [2, 4]: 1 to 16 µg/mL (≈ 1.61 to 25.7 µM)

Compound: CN[C@@H]1[C@@H](O)[C@@H](O[C@@H]2[C@@H](O)[C@H](O[C@H]3OC(CNC(=O)C(O)CN)=CC[C@H]3N)[C@@H](N)C[C@H]2NC(=O)[C@@H](O)CN)OC[C@]1(C)O (stereo partly drawn) [Example 20, 6′-(3-Amino-2-hydroxy-propionyl)-1-(3-amino-2(S)-hydroxy-propionyl)-sisomicin]
- MIC [1, 3]: > 16 µg/mL
- MIC [2, 4]: > 16 µg/mL

Compound: CN[C@@H]1[C@@H](O)[C@@H](O[C@@H]2[C@@H](O)[C@H](O[C@H]3OC(CNCC(O)C(N)=O)=CC[C@H]3N)[C@@H](N)C[C@H]2NC(=O)[C@@H](O)CN)OC[C@]1(C)O (stereo partly drawn) [Example 21, 6′-(2-Hydroxy-3-propionamide)-1-(3-amino-2(S)-hydroxy-propionyl)-sisomicin]
- MIC [1, 3]: 1 to 16 µg/mL (≈ 1.61 to 25.7 µM)
- MIC [2, 4]: 1 to 16 µg/mL (≈ 1.61 to 25.7 µM)

Compound: CN[C@@H]1[C@@H](O)[C@@H](O[C@@H]2[C@@H](O)[C@H](O[C@H]3OC(CNCC(O)CO)=CC[C@H]3N)[C@@H](N)C[C@H]2NC(=O)CO)OC[C@]1(C)O (stereo partly shown) [Example 23, 6′-(2-Hydroxy-propanol)-1-(2-hydroxy-acetyl)-sisomicin]
- MIC [1, 3]: > 16 µg/mL
- MIC [2, 4]: > 16 µg/mL

Compound: CN[C@@H]1[C@@H](O)[C@@H](O[C@@H]2[C@@H](O)[C@H](O[C@H]3OC(CNCCCN)=CC[C@H]3N)[C@@H](N)C[C@H]2NC(=O)CO)OC[C@]1(C)O [Example 24, 6′-(3-Amino-propyl)-1-(2-hydroxy-acetyl)-sisomicin]
- MIC [1, 3]: 1 to 16 µg/mL (≈ 1.78 to 28.4 µM)
- MIC [2, 4]: 1 to 16 µg/mL (≈ 1.78 to 28.4 µM)

Compound: CN[C@@H]1[C@@H](O)[C@@H](O[C@@H]2[C@@H](O)[C@H](O[C@H]3OC(CNCCO)=CC[C@H]3N)[C@@H](N)C[C@H]2NC(=O)CO)OC[C@]1(C)O [Example 25, 6′-(2-Hydroxy-ethyl)-1-(2-hydroxy-acetyl)-sisomicin]
- MIC [1, 3]: 1 to 16 µg/mL (≈ 1.82 to 29.1 µM)
- MIC [2, 4]: 1 to 16 µg/mL (≈ 1.82 to 29.1 µM)
